From patent US12054498B2, “Heteroaromatic macrocyclic ether chemotherapeutic agents” (Nuvalent, Inc., priority 2020, dated 2024) come the findings set out here.

Assay [1] addresses T1, ALK-wt (Homo sapiens, UniProt Q9UM73).
T1 construct: purchased Carna 08-518
In words: Biochemical kinase assay, ALK-wt kinase domain. Particulars: apparent inhibitory constant, Morrison equation; ATP 2 mM in substrate solution; read-out: ALK-wt Ki^app. An outline of the steps:
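Apparent Ki values come from fitting initial reaction rates against inhibitor concentration to the Morrison equation. Rates were taken from the linear phase of fluorogenic substrate phosphorylation (AQT0101 for ALK and ROS1, AQT0104 for TRKA; 26 μM in substrate solution with 2 mM ATP), monitored at 485 nm over 120 min at 30° C.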

Assay [2] deals with T2, ALK L1196M/G1202R (Homo sapiens, UniProt Q9UM73, G1202R/L1196M).
T2 construct: purchased SignalChem A19-12NG
In words: Biochemical kinase assay, ALK L1196M/G1202R kinase domain. To be noted: apparent inhibitory constant, Morrison equation; ATP 2 mM in substrate solution; read-out: ALK-L1196M-G1202R Ki^app. An outline of the steps:
(§1)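 Kinase domains (in kinase solution: ROS1-G2032R 0.5 nM, ROS1-wt 0.6 nM, TRKA 1 nM, ALK L1196M/G1202R 3 nM) were mixed with compound and a substrate solution of 2 mM ATP plus 26 μM fluorogenic AQT0101 (ALK, ROS1) or AQT0104 (TRKA) in HEPES pH 7.5/MgCl2. Fluorescence was followed for 120 min at 30° C; Ki^app was obtained by Morrison fit of initial rates.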

Assay [3] has as its target T3, ROS1-wt (Homo sapiens, UniProt P08922).
T3 construct: purchased Carna 08-163
Briefly: Biochemical kinase assay, ROS1-wt kinase domain. Particulars: apparent inhibitory constant, Morrison equation; ATP 2 mM in substrate solution; read-out: ROS1-wt Ki^app. An outline of the steps:
(§2)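 Compounds, as 100-fold DMSO stocks, were dispensed first, then substrate mix was added (ATP 2 mM, AQT0101 26 μM, in 50 mM HEPES pH 7.5/10 mM MgCl2). Reactions ran at 30 °C with fluorescence logged every 2 min over 120 min. Apparent inhibition constants came from fitting rates to Morrison's tight-binding equation.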

The target in assay [4] is T4, ROS1-G2032R (Homo sapiens, UniProt P08922, G2032R).
T4 construct: purchased SignalChem R14-12BG
Briefly: Biochemical kinase assay, ROS1-G2032R kinase domain. Particulars: apparent inhibitory constant, Morrison equation; ATP 2 mM in substrate solution; read-out: ROS1-G2032R Ki^app. An outline of the steps: as §2

Assay [5] deals with T5, TRKA-wt (Homo sapiens, UniProt P04629).
T5 construct: or TRKA-wt (1 nM, BPS Bio, 40280) kinase domains in buffer; purchased BPS Bio 40280
Briefly: Biochemical kinase assay, TRKA-wt kinase domain. To be noted: apparent inhibitory constant, Morrison equation; ATP 2 mM in substrate solution; read-out: TRKA-wt Ki^app. The method in brief:
as §1

The target of assay [6] is T6, Ba/F3 cells CD74-ROS1 wild-type (wt) (Homo sapiens, UniProt P08922).
T6 construct: fusion of the C-terminus of ROS1 with the N-terminus of various partner proteins; host or cells: Ba/F3 (RIKEN), retroviral pMSCV-puro; the other entry of the earlier key: CD74 (P04233, HLA class II histocompatibility antigen gamma chain)
Briefly: Ba/F3 cell proliferation assay, CD74-ROS1 wild-type. The class given is cell-based. Particulars: 72 hours, CellTiter-Glo. An outline of the steps:
(§3)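 Cells seeded 1 day, then treated with 3-fold compound dilutions for 72 h; viability by CellTiter-Glo luminescence. IC50 from percent inhibition by four-parameter logistic fit.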

For assay [7], the target named is T7, Ba/F3 cells CD74-ROS1 G2032R (Homo sapiens, UniProt P08922, G2032R).
T7 construct: fusion of the C-terminus of ROS1 with the N-terminus of various partner proteins; host or cells: Ba/F3 (RIKEN), retroviral pMSCV-puro; the other entry of the earlier key: CD74 (P04233, HLA class II histocompatibility antigen gamma chain)
Briefly: Ba/F3 cell proliferation assay, CD74-ROS1 G2032R. Particulars: 72 hours, CellTiter-Glo. The class given is cell-based. An outline of the steps:
as §3

The target of assay [8] is T8, Ba/F3 cells EML4-ALK wt (variant 1) (Homo sapiens, UniProt Q9UM73).
T8 construct: echinoderm microtubule-associated protein-like 4 (EML4) gene and the ALK tyrosine kinase domain; host or cells: Ba/F3 (RIKEN), retroviral pMSCV-puro; the other entry of the earlier key: EML4 (Q9HC35, Echinoderm microtubule-associated protein-like 4)
In words: Ba/F3 cell proliferation assay, EML4-ALK wt (variant 1). The class given is cell-based. Particulars: 72 hours, CellTiter-Glo. An outline of the steps:
(§4)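 IL-3-independent Ba/F3 lines stably expressing the fusion kinase (retroviral, puromycin-selected), 1,000 cells/well, treated with 3-fold compound dilutions for 72 h. Viability by CellTiter-Glo luminescence; IC50 from four-parameter logistic fit of percent inhibition.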

The target of assay [9] is T9, Ba/F3 cells EML4-ALK L1196M/G1202R (variant 1) (Homo sapiens, UniProt Q9UM73, G1202R/L1196M).
T9 construct: echinoderm microtubule-associated protein-like 4 (EML4) gene and the ALK tyrosine kinase domain; host or cells: Ba/F3 (RIKEN), retroviral pMSCV-puro; the other entry of the earlier key: EML4 (Q9HC35, Echinoderm microtubule-associated protein-like 4)
Briefly: Ba/F3 cell proliferation assay, EML4-ALK L1196M/G1202R (variant 1). To be noted: 72 hours, CellTiter-Glo. Format: cell-based. An outline of the steps: as §4

Assay [10] has as its target T10, Ba/F3 cells TPM3-TRKA (Homo sapiens, UniProt P04629).
T10 construct: host or cells: Ba/F3 (RIKEN), retroviral pMSCV-puro; the other entry of the earlier key: TPM3 (P06753, Tropomyosin alpha-3 chain)
In words: Ba/F3 cell proliferation assay, TPM3-TRKA. Particulars: 72 hours, CellTiter-Glo, read-out: TPM3-NTRK1-wt IC50. Format: cell-based. The method in brief: as §4

For assay [11], the system named is TPM3-NTRK1-wt IC50 / primary target IC50 (e.g. CD74-ROS1-wt). Briefly: TRKA selectivity in Ba/F3 cells (TRKA potency divided by primary target potency). Format: cell-based. To be noted: for TPM3-NTRK1-wt/CD74-ROS1-G2032R selectivity ratio: TRKA potency / CD74-ROS1-G2032R potency; for TPM3-NTRK1-wt/CD74-ROS1-wt selectivity ratio: TRKA potency / CD74-ROS1-wt potency; for TPM3-NTRK1-wt/EML4-ALK-L1196M-G1202R selectivity ratio: TRKA potency / EML4-ALK-L1196M-G1202R potency; for TPM3-NTRK1-wt/EML4-ALK-wt selectivity ratio: TRKA potency / EML4-ALK-wt potency. Here is the method: TRKA selectivity was calculated by dividing a compound's TRKA potency by its primary target potency (e.g. TPM3-NTRK1-wt IC50/CD74-ROS1-wt IC50). Compound selectivity can be interpreted by binning ratio values: bin A for very high selectivity, ratio >30-fold; bin B for high selectivity, ratio >10-fold; bin C for moderate selectivity, ratio ≥1; and bin D for low selectivity, ratio <1. […] (nd=not determined).

T9 sequence (Q9UM73 with tags, fused parts or gaps L1196M/G1202R): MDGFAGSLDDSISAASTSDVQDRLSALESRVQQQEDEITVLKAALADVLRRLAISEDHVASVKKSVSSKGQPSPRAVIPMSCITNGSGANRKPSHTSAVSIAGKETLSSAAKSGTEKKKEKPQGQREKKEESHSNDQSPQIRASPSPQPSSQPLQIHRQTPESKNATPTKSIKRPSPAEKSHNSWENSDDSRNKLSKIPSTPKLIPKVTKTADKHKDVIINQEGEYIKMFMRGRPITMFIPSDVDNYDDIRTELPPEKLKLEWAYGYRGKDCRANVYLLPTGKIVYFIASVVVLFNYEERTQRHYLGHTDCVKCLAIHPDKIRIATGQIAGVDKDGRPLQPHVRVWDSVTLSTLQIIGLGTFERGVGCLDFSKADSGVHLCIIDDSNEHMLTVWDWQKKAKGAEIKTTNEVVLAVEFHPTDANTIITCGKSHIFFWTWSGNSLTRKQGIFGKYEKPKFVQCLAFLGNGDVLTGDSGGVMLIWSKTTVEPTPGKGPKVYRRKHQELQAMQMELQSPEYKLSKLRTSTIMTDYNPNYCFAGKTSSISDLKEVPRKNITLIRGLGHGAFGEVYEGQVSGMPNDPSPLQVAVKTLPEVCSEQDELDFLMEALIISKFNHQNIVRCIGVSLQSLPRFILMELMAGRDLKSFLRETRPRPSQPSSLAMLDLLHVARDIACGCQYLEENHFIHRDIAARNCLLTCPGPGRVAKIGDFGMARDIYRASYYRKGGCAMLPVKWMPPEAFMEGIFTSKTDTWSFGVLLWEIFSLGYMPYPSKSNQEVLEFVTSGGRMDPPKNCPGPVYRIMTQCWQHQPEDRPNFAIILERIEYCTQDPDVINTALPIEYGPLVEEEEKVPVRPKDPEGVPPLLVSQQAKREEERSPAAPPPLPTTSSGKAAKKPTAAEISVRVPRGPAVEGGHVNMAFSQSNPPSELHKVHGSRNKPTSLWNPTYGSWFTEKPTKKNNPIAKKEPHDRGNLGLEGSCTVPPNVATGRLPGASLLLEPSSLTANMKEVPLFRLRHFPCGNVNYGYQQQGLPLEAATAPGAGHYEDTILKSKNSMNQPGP
T4 sequence (P08922 1945-2222 G2032R limits assumed): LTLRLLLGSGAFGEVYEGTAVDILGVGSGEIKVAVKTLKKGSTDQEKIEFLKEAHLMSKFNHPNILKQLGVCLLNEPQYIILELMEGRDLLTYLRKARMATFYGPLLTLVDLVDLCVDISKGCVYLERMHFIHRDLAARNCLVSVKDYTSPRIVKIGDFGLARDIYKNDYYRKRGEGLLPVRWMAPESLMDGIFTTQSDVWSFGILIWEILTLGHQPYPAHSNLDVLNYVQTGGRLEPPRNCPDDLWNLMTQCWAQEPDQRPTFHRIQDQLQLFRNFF
T3 sequence (P08922 1945-2222 limits assumed): as the sequence (P08922 1945-2222 G2032R limits assumed) above, with R88G counted along it
T1 sequence (Q9UM73 1116-1392 limits assumed): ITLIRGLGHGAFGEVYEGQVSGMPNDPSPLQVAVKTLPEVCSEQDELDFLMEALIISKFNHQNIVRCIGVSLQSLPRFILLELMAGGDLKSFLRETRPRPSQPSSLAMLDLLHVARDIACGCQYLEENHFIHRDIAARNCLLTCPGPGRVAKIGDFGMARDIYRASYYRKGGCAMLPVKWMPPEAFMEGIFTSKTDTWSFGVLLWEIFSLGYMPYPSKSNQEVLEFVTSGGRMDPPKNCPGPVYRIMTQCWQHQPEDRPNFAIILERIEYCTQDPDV
T10 sequence (P04629 510-796 limits assumed): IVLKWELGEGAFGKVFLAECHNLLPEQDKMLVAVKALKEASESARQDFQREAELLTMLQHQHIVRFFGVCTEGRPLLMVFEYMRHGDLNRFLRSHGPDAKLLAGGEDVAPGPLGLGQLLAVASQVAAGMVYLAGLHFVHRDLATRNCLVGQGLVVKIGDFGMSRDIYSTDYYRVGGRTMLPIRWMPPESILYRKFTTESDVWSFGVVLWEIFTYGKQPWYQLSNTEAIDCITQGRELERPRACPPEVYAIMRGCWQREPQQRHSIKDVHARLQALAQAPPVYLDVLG
T5 sequence (P04629 510-781 limits assumed): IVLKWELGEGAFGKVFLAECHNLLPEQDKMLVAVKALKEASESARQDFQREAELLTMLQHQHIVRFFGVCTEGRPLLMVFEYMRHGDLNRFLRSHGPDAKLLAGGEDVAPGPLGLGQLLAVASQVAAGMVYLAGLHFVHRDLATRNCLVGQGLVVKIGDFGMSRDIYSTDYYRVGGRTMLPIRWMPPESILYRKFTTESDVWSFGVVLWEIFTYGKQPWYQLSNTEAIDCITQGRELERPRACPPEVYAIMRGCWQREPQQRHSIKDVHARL
T7 sequence (P08922 1883-2347 G2032R limits assumed): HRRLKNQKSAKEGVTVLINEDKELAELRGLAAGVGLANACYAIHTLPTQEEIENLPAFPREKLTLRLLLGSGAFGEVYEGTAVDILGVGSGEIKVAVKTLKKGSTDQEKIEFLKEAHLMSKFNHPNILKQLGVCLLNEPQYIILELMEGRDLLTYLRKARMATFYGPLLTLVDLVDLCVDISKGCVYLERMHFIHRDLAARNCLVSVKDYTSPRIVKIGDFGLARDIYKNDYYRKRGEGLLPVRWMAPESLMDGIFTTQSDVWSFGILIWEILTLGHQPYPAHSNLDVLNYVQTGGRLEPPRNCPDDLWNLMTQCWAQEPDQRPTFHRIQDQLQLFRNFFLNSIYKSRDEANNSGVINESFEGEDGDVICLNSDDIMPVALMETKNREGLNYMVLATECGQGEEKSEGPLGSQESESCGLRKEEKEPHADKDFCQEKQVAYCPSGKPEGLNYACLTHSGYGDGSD
T8 sequence (Q9UM73 with tags, fused parts or gaps): as the sequence (Q9UM73 with tags, fused parts or gaps L1196M/G1202R) above, with M635L, R641G counted along it
T2 sequence (Q9UM73 1116-1392 L1196M/G1202R limits assumed): as the sequence (Q9UM73 1116-1392 limits assumed) above, with L81M, G87R counted along it
T6 sequence (P08922 1883-2347 limits assumed): as the sequence (P08922 1883-2347 G2032R limits assumed) above, with R150G counted along it

Regarding `C[C@H]1Oc2cc(cnc2N)-c2c(cnn2C2CCC2)Cn2ncnc2-c2ccc(F)cc21` [Example 39, (19R)-3-cyclobutyl-16-fluoro-19-methyl-20-oxa-3,4,8,9,11,23-hexaazapentacyclo[19.3.1.0^2,^6.0^8,^12.0^13,^18]pentacosa-1(24),2(6),4,9,11,13,15,17,21(25),22-decaen-22-amine], the Ki in [1] is less than 50 nM; in assay [2], less than 50 nM; in assay [3] it was less than 50 nM; in assay [4], less than 50 nM; in [5] it was greater than 500 nM. Moreover, the IC50 in [6] was 0.1 to 50 nM; in assay [7] it was 0.1 to 50 nM; in assay [8] it was 0.1 to 50 nM; in assay [9], 50 to 500 nM; in assay [10] it was greater than 500 nM. Moreover, the TPM3-NTRK1-wt/CD74-ROS1-G2032R selectivity ratio result in assay [11] is “A (bin A for very high selectivity, ratio >30-fold)”. Besides, the TPM3-NTRK1-wt/CD74-ROS1-wt selectivity ratio entry in [11] is “A (bin A for very high selectivity, ratio >30-fold)”. The TPM3-NTRK1-wt/EML4-ALK-L1196M-G1202R selectivity ratio result in [11] was “B (bin B for high selectivity, ratio >10-fold)”. Further, the TPM3-NTRK1-wt/EML4-ALK-wt selectivity ratio entry in assay [11] was “A (bin A for very high selectivity, ratio >30-fold)”.
As to `CCn1ncc2c1-c1cnc(N)c(c1)O[C@H](C)c1cc(F)ccc1-n1nc(C)nc1C2` [Example 40, (19R)-3-ethyl-16-fluoro-10,19-dimethyl-20-oxa-3,4,9,11,12,23-hexaazapentacyclo[19.3.1.0^2,^6.0^8,^12.0^13,^18] pentacosa 1(24),2(6),4,8,10,13,15,17,21(25),22-decaen-22-amine], the Ki in [1] was less than 50 nM; in [2] it was less than 50 nM; in assay [3], less than 50 nM; in [4], less than 50 nM; in assay [5], 50 to 500 nM. In addition, the IC50 in assay [6] fell in the range of 0.1 to 50 nM; in [7], 0.1 to 50 nM; in assay [8], 0.1 to 50 nM; in [9] it was 50 to 500 nM; in [10] it was 50 to 500 nM. Also, the TPM3-NTRK1-wt/CD74-ROS1-G2032R selectivity ratio entry in assay [11] is “A (bin A for very high selectivity, ratio >30-fold)”. For the same molecule, in [11], the TPM3-NTRK1-wt/CD74-ROS1-wt selectivity ratio entry was “A (bin A for very high selectivity, ratio >30-fold)”. Further, in assay [11], the TPM3-NTRK1-wt/EML4-ALK-L1196M-G1202R selectivity ratio entry is listed as “C (bin C for moderate selectivity, ratio ≥1)”. The TPM3-NTRK1-wt/EML4-ALK-wt selectivity ratio result in assay [11] was “B (bin B for high selectivity, ratio >10-fold)”.
As to `C[C@H]1Oc2cc(cnc2N)-c2c(cnn2C2CCC2)Cc2ncnn2-c2ccc(F)cc21` [Example 41, (19R)-3-cyclobutyl-16-fluoro-19-methyl-20-oxa-3,4,9,11,12,23-hexaazapentacyclo[19.3.1.0^2,^6.0^8,^12.0^13,^18]pentacosa-1(24),2(6),4,8,10,13,15,17,21(25),22-decaen-22-amine], the Ki was less than 50 nM in assay [1]; less than 50 nM in assay [2]; less than 50 nM in assay [3]; less than 50 nM in assay [4]; greater than 500 nM in [5]. Also, the IC50 was 0.1 to 50 nM in assay [6]; 0.1 to 50 nM in assay [7]; 0.1 to 50 nM in [8]; 0.1 to 50 nM in [9]; greater than 500 nM in assay [10]. In assay [11], the TPM3-NTRK1-wt/CD74-ROS1-G2032R selectivity ratio entry was “A (bin A for very high selectivity, ratio >30-fold)”. For the same molecule, in assay [11], the TPM3-NTRK1-wt/CD74-ROS1-wt selectivity ratio entry is “A (bin A for very high selectivity, ratio >30-fold)”. In addition, the TPM3-NTRK1-wt/EML4-ALK-L1196M-G1202R selectivity ratio entry in assay [11] is given as “B (bin B for high selectivity, ratio >10-fold)”. Moreover, the TPM3-NTRK1-wt/EML4-ALK-wt selectivity ratio entry in assay [11] was “A (bin A for very high selectivity, ratio >30-fold)”.
In the case of `CCn1ncc2c1-c1cnc(N)c(c1)O[C@H](C)c1cc(F)ccc1-n1ccnc1C2` [Example 42, (19R)-3-ethyl-16-fluoro-19-methyl-20-oxa-3,4,9,12,23-pentaazapentacyclo[19.3.1.0^2,^6.0^8,^12.0^13,^18]pentacosa-1(24),2(6),4,8,10,13,15,17,21(25),22-decaen-22-amine], the Ki was less than 50 nM in assay [1]; less than 50 nM in assay [2]; less than 50 nM in assay [3]; less than 50 nM in assay [4]; 50 to 500 nM in [5]. Besides, the IC50 in assay [6] was 0.1 to 50 nM; in [7], 0.1 to 50 nM; in assay [8], 0.1 to 50 nM; in assay [9], 50 to 500 nM; in [10], 50 to 500 nM. Further, in [11], the TPM3-NTRK1-wt/CD74-ROS1-G2032R selectivity ratio result is given as “A (bin A for very high selectivity, ratio >30-fold)”. Besides, the TPM3-NTRK1-wt/CD74-ROS1-wt selectivity ratio result in assay [11] is reported as “A (bin A for very high selectivity, ratio >30-fold)”. For the same molecule, in assay [11], the TPM3-NTRK1-wt/EML4-ALK-L1196M-G1202R selectivity ratio entry is “C (bin C for moderate selectivity, ratio ≥1)”. For the same molecule, in [11], the TPM3-NTRK1-wt/EML4-ALK-wt selectivity ratio result is on record as “B (bin B for high selectivity, ratio >10-fold)”.
Take `CCc1nsc2c1-c1cnc(N)c(c1)O[C@H](C)c1cc(F)ccc1-c1ncnn1C2` [Example 44, (19R)-3-ethyl-16-fluoro-19methyl-20-oxa-5-thia-4,8,9,11,23-pentaazapentacyclo[19.3.1.0^2,^6.0^8,^12.0^13,^18]pentacosa-1(24),2(6),3,9,11,13,15,17,21(25),22-decaen-22-amine]: the Ki in [1] is less than 50 nM; in [2], 50 to 500 nM; in assay [3], less than 50 nM; in [4], 50 to 500 nM; in [5] it was greater than 500 nM. Also, the IC50 is 0.1 to 50 nM in assay [6]; 0.1 to 50 nM in assay [7]; 0.1 to 50 nM in [8]; 50 to 500 nM in assay [9]; greater than 500 nM in assay [10]. The TPM3-NTRK1-wt/CD74-ROS1-G2032R selectivity ratio result in assay [11] was “A (bin A for very high selectivity, ratio >30-fold)”. Further, in assay [11], the TPM3-NTRK1-wt/CD74-ROS1-wt selectivity ratio result is “A (bin A for very high selectivity, ratio >30-fold)”. Besides, the TPM3-NTRK1-wt/EML4-ALK-L1196M-G1202R selectivity ratio entry in assay [11] is reported as “C (bin C for moderate selectivity, ratio ≥1)”. The TPM3-NTRK1-wt/EML4-ALK-wt selectivity ratio entry in assay [11] is listed as “A (bin A for very high selectivity, ratio >30-fold)”.
